# Measurements: patent publication US7597882B2, “Protein crosslinkers, crosslinking methods and applications thereof” (Incept LLC, priority 2006, dated 2009)
# Key:
# albumin = target: T1, albumin (Bos taurus, UniProt P02769); assay: Gelation of albumin solution in PBS by synthetic crosslinker after raising pH; parameters: species or system bovine; settings: for time to soft hydrogel: 333 mg bovine serum albumin in 0.667 ml PBS; for Gel time: 27° C.
# T1 construct: 333 mg bovine serum albumin was dissolved in 0.667 ml PBS
# T1 sequence (P02769 25-607): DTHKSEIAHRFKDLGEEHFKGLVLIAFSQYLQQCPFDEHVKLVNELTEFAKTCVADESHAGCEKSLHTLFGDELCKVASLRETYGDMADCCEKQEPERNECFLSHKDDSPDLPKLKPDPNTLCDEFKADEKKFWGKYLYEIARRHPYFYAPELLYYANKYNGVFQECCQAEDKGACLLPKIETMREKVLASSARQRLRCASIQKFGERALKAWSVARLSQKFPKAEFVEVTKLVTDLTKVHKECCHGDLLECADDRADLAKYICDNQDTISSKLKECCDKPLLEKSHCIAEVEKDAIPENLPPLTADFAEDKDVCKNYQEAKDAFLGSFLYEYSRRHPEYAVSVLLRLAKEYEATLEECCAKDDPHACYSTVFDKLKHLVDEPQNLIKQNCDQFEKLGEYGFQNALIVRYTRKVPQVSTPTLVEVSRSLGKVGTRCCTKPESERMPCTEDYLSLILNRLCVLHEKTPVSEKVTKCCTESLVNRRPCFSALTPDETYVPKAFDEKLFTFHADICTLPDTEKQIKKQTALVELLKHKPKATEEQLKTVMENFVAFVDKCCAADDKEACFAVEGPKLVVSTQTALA
# Text: As described above, a biological fluid (e.g., blood, serum, or fibrinogen rich fractions) may be used for reaction with crosslinkers or the monomers to form a crosslinked gel material. The material may be made in preparation for a medical procedure, e.g., immediately before or during the same, and used with a crosslinker or the monomer. […] The crosslinking reaction is accelerated by raising the pH of the solution. This can be achieved by contacting such composition with suitable alkaline buffer. Nonlimiting examples of suitable alkaline buffers include HEPES, sodium hydroxide, potassium hydroxide, calcium hydroxide, bicarbonate/NaOH pH 10, sodium borate pH 10, 1.5 M glycine/NaOH pH 10, 0.5-0.75M sodium carbonate/bicarbonate pH 10, 1M hydroxyethylepiperazine propane sulfonic acid (EPPS) pH 8.5, Trishydroxymethyl aminoethane sulphonic acid pH 8 and triethanol amine pH 7. The amount of alkaline buffer that is utilized should be enough to induce crosslinking. In some cases, the crosslinker is mixed with the alkaline buffer to raise the pH and then mixed with biological fluid to induce crosslinking or gelation. This method is least preferred due to hydrolysis of n-hydroxysuccimide esters at higher pH. The amine-succinimide ester reaction parameters such as number of reactive functional groups present on the biological fluid components, concentration of each ingredient, pH, temperature and pressures are adjusted such that gelation occurs within 60 minutes, more preferably with in 60 seconds and most preferably with 1 to 10 seconds.
# pH was raised using 3M NaOH solution, at ambient temperature (27° C.) and mixed equal volumes. […] PEG 600 is polyethylene glycol with a molecular weight of 600.
# […] of […] was dissolved in 1 ml PBS. […] 20 microliter […] solution in PBS and 20 microliter albumin solution were mixed on a glass plate to form a uniform solution.
# […] of BTANHS was dispersed in 0.9 ml PBS. […] 20 microliter BTANHS dispersion in PBS and 20 microliter of albumin solution were mixed on a glass plate to form a uniform dispersion.
# […] of BTANHS was dispersed in 0.8 ml PBS containing 2% PLURONIC F127 (from BASF corporation USA) as a surfactant. Sonication or high speed stirring helps to form the emulsion. […] 20 microliter BTANHS emulsion in PBS and 20 microliter of albumin solution were mixed in a 1 ml plastic centrifuge tube to form a uniform solution.
# Polyethylene glycol serves as an organic solvent. 200 mg bovine serum albumin was dissolved in 0.800 ml PBS.
# 20 microliter albumin solution and 20 microliter crosslinkers solution were mixed on a glass plate to form a uniform solution.
# Solubility in water = assay type: physicochemical
# [1] = Degradation of crosslinked gel made with 8 arm PEG amine; assay type: physicochemical; settings: gel with 8 arm PEG amine 20000; hydrolysis of ester bond of crosslinker
# Method: 1 ml of each of these two solutions are mixed to produce a crosslinked gel. The crosslinked gel degrades due to hydrolysis of succinate ester bond in Hydroxylamine Succinate NHS ester.
# 0.12 g Hydroxylamine Glutarate NHS ester (Example 7) is dissolved in 5 ml phosphate buffered saline. 1 ml of each of two solutions are mixed to produce a crosslinked gel. The crosslinked gel degrades due to hydrolysis of glutarate ester bond in Hydroxylamine Glutarate NHS ester.
Compound,"time to soft hydrogel (albumin; crosslinker dispersion in PBS, 3M sodium hydroxide) [min]","time to soft hydrogel (albumin; crosslinker emulsion in PBS with 2% PLURONIC F127, triethanol amine) [min]","Notes (gel formed) (albumin; 5% albumin in PBS, crosslinker 10% in PBS)","Gel time (albumin; 5% albumin in PBS, crosslinker 10% in PBS, 3M NaOH, equal volumes) [min]","Notes (gel formed) (albumin; 5% albumin in PBS, crosslinker (10%) in PEG 600)","Gel time (albumin; 5% albumin in PBS, crosslinker (10%) in PEG 600, 3M NaOH) [min]","Notes (gel formed) (albumin; 10% albumin in PBS, crosslinker 10% in PBS)","Gel time (albumin; 10% albumin in PBS, crosslinker 10% in PBS, 3M NaOH, equal volumes) [min]","Notes (gel formed) (albumin; 20% albumin in PBS, crosslinker 10% in PBS)","Gel time (albumin; 20% albumin in PBS, crosslinker 10% in PBS, 3M NaOH, equal volumes) [min]","Notes (gel formed) (albumin; 20% albumin in PBS, crosslinker (10%) in PEG 600)","Gel time (albumin; 20% albumin in PBS, crosslinker (10%) in PEG 600, 3M NaOH) [min]","Notes (gel formed) (albumin; 30% albumin in PBS, crosslinker 10% in PBS)","Gel time (albumin; 30% albumin in PBS, crosslinker 10% in PBS, pH raised with 3M NaOH, equal volumes) [min]",solubility in water (Solubility in water),degradation of crosslinked gel [1]
O=C(CC(C(=O)ON1C(=O)CCC1=O)C(CC(=O)ON1C(=O)CCC1=O)C(=O)ON1C(=O)CCC1=O)ON1C(=O)CCC1=O (stereo not shown) [BTANHS],5,3,Did not gel,>28,Did not gel,>25,Soft gel,18,Soft gel,3,Soft gel,5,Soft gel,1,Water Insoluble,–
Hydroxylamine Glutarate NHS Ester,–,–,–,–,–,–,–,–,–,–,–,–,–,–,–,degrades
